Laboratory results reported in patent US10392405B2, “Macrocyclic immunomodulators” (CHEMOCENTRYX, INC., priority 2017, dated 2019).

The compounds below were run against human PD-L1 / Human PD-1 (Homo sapiens (Human), UniProt Q9NZQ7) (assay: Enzyme-Linked Immunosorbent Assay (ELISA), PD-1/PD-L1 binding). Conditions: plate-coated human PD-L1, biotinylated human PD-1, absorbance 450 nm.
Experimental: 96 Well plates were coated with 1 μg/mL of human PD-L1 (obtained from R&D) in PBS overnight at 4° C. The wells were then blocked with 2% BSA in PBS (W/V) with 0.05% TWEEN-20 for 1 hour at 37° C. The plates were washed 3 times with PBS/0.05% TWEEN-20 and the compounds were serial diluted (1:5) in dilution medium and added to the ELISA plates. Human PD-1 and biotin 0.3 μg/mL (ACRO Biosystems) were added and incubated for 1 hour at 37° C. then washed 3 times with PBS/0.05% TWEEN-20. A second block was performed with 2% BSA in PBS (W/V)/0.05% TWEEN-20 for 10 min at 37° C. and was washed 3 times with PBS/0.05% TWEEN-20. Streptavidin-HRP was added for 1 hour at 37° C. then washed 3 times with PBS/0.05% TWEEN-20. TMB substrate was added and reacted for 20 min at 37° C. A stop solution (2 N aqueous H2SO4) was added. The absorbance was read at 450 nm using a micro-plate spectrophotometer.
Compounds in Table 1 were prepared by methods as described in the Examples and evaluated according to the assay above. The IC50 of the compounds are presented in Table 1 as follows: • +, 20000 nM≥IC50≥500 nM; • ++, 500 nM≥IC50≥100 nM; • +++, 100 nM>IC50.

human PD-L1 / Human PD-1, sequence (Q9NZQ7 19-239): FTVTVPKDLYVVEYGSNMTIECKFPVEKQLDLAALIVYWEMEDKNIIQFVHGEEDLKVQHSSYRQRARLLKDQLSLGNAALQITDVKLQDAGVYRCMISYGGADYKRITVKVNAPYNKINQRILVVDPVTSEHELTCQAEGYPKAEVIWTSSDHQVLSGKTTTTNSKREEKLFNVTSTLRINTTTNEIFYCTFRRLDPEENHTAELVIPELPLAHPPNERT

Row | Compound | IC50 [nM]
1 | O=C1NCCCC[C@@H](C(=O)O)NCc2cc(Cl)c(O[C@H]3CCc4c(-c5ccccc5F)cccc43)cc2OCc2cncc1c2 [Compound 1.007] | 100 to 500
2 | Cc1c(COc2cc3c(cc2Cl)CN[C@H](C(=O)O)CCCCNC(=O)c2cncc(c2)CO3)cccc1-c1ccccc1 [Compound 1.016] | < 100
3 | COc1cccc(-c2cccc(COc3cc4c(cc3Cl)CN[C@H](C(=O)O)CCCCNC(=O)c3cncc(c3)CO4)c2C)c1F [Compound 1.001] | < 100
4 | Cc1c(COc2cc3c(cc2Cl)CNC(CO)CCCCNC(=O)c2cncc(c2)CO3)cccc1-c1cccc(OCCCN2CC[C@@H](O)C2)c1C (single isomer, unassigned) [Compound 1.024] | < 100
5 | Cc1c(COc2cc3c(cc2Cl)CN[C@H](C(=O)O)CCCCNC(=O)c2cncc(c2)CO3)cccc1-c1ccccc1F [Compound 1.003] | < 100
6 | Cc1c(COc2cc3c(cc2Cl)CN[C@H](CO)CCCCNC(=O)c2cncc(c2)CO3)cccc1-c1cccc(OCCCN2CCC(F)CC2)c1C [Compound 1.025] | < 100
7 | Cc1c(COc2cc3c(cc2Cl)CN[C@H](CC(=O)O)CCCCNC(=O)c2cncc(c2)CO3)cccc1-c1ccccc1 [Compound 1.011] | 100 to 500
8 | Cc1c(COc2cc3c(cc2Cl)CN[C@H](C(=O)O)CCCCNC(=O)c2cncc(c2)CO3)cccc1-c1cccc(OCCCN2CC(O)C2)c1C [Compound 1.020] | < 100
9 | Cc1c(COc2cc3c(cc2Cl)CN[C@@H](CO)C(=O)NCCNC(=O)c2cncc(c2)CO3)cccc1-c1ccccc1 [Compound 1.006] | 100 to 500
10 | O=C1NCCCC[C@@H](C(=O)O)NCc2cc(Cl)c(O[C@H]3CCc4c(-c5ccc6c(c5F)OCCO6)cccc43)cc2OCc2cncc1c2 [Compound 1.014] | < 100
11 | Cc1c(COc2cc3c(cc2Cl)CN[C@H](C(=O)O)CCCCNC(=O)c2cncc(c2)CO3)cccc1-c1cccc(OCCCCl)c1C [Compound 1.005] | 500 to 20000
12 | Cc1c(COc2cc3c(cc2Cl)CN[C@H](C(=O)O)CCCCNC(=O)c2cncc(c2)CO3)cccc1-c1ccc2c(c1)OCCO2 [Compound 1.002] | < 100
13 | Cc1c(COc2cc3c(cc2Cl)CN[C@H](C(=O)O)CCCNC(=O)c2cncc(c2)CO3)cccc1-c1ccccc1 [Compound 1.010] | 100 to 500
14 | Cc1c(COc2cc3c(cc2Cl)CN[C@H](C(=O)O)CCCCNC(=O)c2cncc(c2)CO3)cccc1-c1cccc(OCCCN2CCC(O)CC2)c1C [Compound 1.004] | < 100
15 | Cc1c(COc2cc3c(cc2Cl)CN[C@H](C(=O)O)CCCCNC(=O)c2cncc-3c2)cccc1-c1ccccc1 [Compound 1.013] | 500 to 20000
16 | Cc1c(COc2cc3c(cc2Cl)CN[C@H](C(=O)O)COCCNC(=O)c2cncc(c2)CO3)cccc1-c1ccccc1 [Compound 1.008] | 100 to 500
17 | Cc1c(COc2cc3c(cc2Cl)CN[C@H](C(=O)O)CCCCNC(=O)CCCCO3)cccc1-c1ccccc1 [Compound 1.012] | 100 to 500
18 | Cc1c(COc2cc3c(cc2Cl)CN[C@H](C(=O)O)CCNC(=O)c2cncc(c2)CO3)cccc1-c1ccccc1 [Compound 1.009] | 500 to 20000
19 | Cc1c(COc2cc3c(cc2Cl)CN[C@H](C(=O)O)CCCCNC(=O)c2cc(C#N)cc(c2)CO3)cccc1-c1cccc(OCCCN2CCC(F)CC2)c1C [Compound 1.021] | < 100
